Measurements taken from patent publication US10191057B2, “Methods of diagnosing, classifying and treating endometrial cancer and precancer” (THE TRANSLATIONAL GENOMICS RESEARCH INSTITUTE, priority 2007, dated 2019).

Experiments:
[1] = test system: AN3CA cells (N550K FGFR2 mutation); experiment: SRB cell proliferation/viability assay, AN3CA; format: cell-based; conditions: Homo sapiens, AN3-CA, read-out: PD173074 IC50, cell viability, SRB assay 72 hours after addition, full growth medium
[2] = test system: MFE296 cells (N550K FGFR2 mutation); experiment: SRB cell proliferation/viability assay, MFE296; format: cell-based; conditions: Homo sapiens, MFE-296, read-out: PD173074 IC50, cell viability; MFE296, SRB assay 72 hours after addition, full growth medium
Protocol: (§1) Cells were plated at a density of 4×10^5 cells per well in a 6 well plate. The next day, cells were infected with lentiviral stocks in the presence of 6 μg/ml polybrene (Sigma-Aldrich, St. Louis, Mo.). Empty vector and nonsilencing shRNA infections were used as controls for each experiment. […] Growth Inhibition Assay Twenty-four hours after infection, cells were trypsinized and plated in 96 well plates in full growth medium at a density of 5,000 cells per well, in triplicate, and proliferation assessed using the Sulforhodamine B (SRB) assay (Sigma-Aldrich, St. Louis, Mo.). […] The protein-bound dye was dissolved in 10 mM Tris base solution, and absorbance measured at 510 nm. […] 48 hours after transfection, floating and attached cells were collected, washed in cold PBS, resuspended in Annexin binding buffer (10 mM Hepes (pH 7.4), 140 mM NaCl, 2.5 mM CaCl2), stained with 500 ng/mL annexinV-FITC and 1 μg/mL propidium iodide (Sigma-Aldrich, St. Louis, Mo.), and analyzed for annexin positive cells using a CyAn ADP flow cytometer and Summit software, version 4.3 (Dako Cytomation, Carpinteria, Calif.). […] 72 hours later, cells were stained with propidium iodide as described {Krishan, 1975 #28} and analyzed by flow cytometry. […] FGFR2 expression was detected with BekC17 antibody (Santa Cruz Biotechnology, Inc., Santa Cruz, Calif.). […]

[3] = test system: HEC1A cells (wildtype FGFR2); experiment: SRB cell viability assay, HEC1A; format: cell-based; conditions: Homo sapiens, HEC-1-A, read-out: PD173074 IC50, cell viability, SRB assay 72 hours after addition, full growth medium
Protocol: as §1

[4] = test system: Ishikawa cells (wildtype FGFR2); experiment: SRB cell viability assay, Ishikawa; format: cell-based; conditions: Homo sapiens, read-out: PD173074 IC50, cell viability, SRB assay 72 hours after addition, full growth medium
Protocol: as §1

[5] = test system: KLE cells (wildtype FGFR2); experiment: SRB cell viability assay, KLE; format: cell-based; conditions: Homo sapiens, read-out: PD173074 IC50, cell viability, SRB assay 72 hours after addition, full growth medium
[6] = test system: RL952 cells (wildtype FGFR2); experiment: SRB cell viability assay, RL952; format: cell-based; conditions: Homo sapiens, RL95-2, read-out: PD173074 IC50, cell viability; RL952, SRB assay 72 hours after addition, full growth medium
Protocol: as §1

AN3CA cells [7] = experiment: Annexin V-FITC labeling of apoptotic cells, AN3CA; format: cell-based, human
Protocol: as §1

MFE296 cells [8] = experiment: Annexin V-FITC labeling of apoptotic cells, MFE296; format: cell-based, human; conditions: MFE296, data not shown
Protocol: as §1

AN3CA cells [9] = experiment: Cell cycle analysis (propidium iodide, flow cytometry), AN3CA; format: cell-based, human; conditions: 1 μM, 72 hrs
Protocol: as §1

MFE296 cells [10] = experiment: Cell cycle analysis, MFE296; format: cell-based, human; conditions: MFE296, data not shown
Protocol: as §1

ERK1/2 = experiment: Western blot, activation of ERK1/2; format: cell-based, human
Protocol: (§2) Cells were plated at a density of 4×10^5 cells per well in a 6 well plate. The next day, cells were infected with lentiviral stocks in the presence of 6 μg/ml polybrene (Sigma-Aldrich, St. Louis, Mo.). Empty vector and nonsilencing shRNA infections were used as controls for each experiment. […] Growth Inhibition Assay Twenty-four hours after infection, cells were trypsinized and plated in 96 well plates in full growth medium at a density of 5,000 cells per well, in triplicate, and proliferation assessed using the Sulforhodamine B (SRB) assay (Sigma-Aldrich, St. Louis, Mo.). At the indicated time points, wells were fixed with 10% (wt/vol) trichloroacetic acid, stained with SRB for 30 min, and washed with 1% (vol/vol) acetic acid. The protein-bound dye was dissolved in 10 mM Tris base solution, and absorbance measured at 510 nm. […] Annexin V-FITC Labeling of Apoptotic Cells Annexin V-FITC staining was used to measure phosphatidylserine exposure on cells undergoing apoptosis, according to the manufacturer's instructions (BioVision, Inc. Mountain View, Calif.). […] 2.5×10^5 cells were plated per well in a 6 well plate. Twenty-four hours later, cells were transfected with 25 nM nonsilencing (NS) siRNA or FGFR2 siRNA X2 using Lipofectamine 2000 transfection reagent. The siRNA duplex was allowed to form a complex with Lipofectamine 2000 for 20 minutes at room temperature, and transfection carried out at 37° C. for 24 hours. 48 hours after transfection, floating and attached cells were collected, washed in cold PBS, resuspended in Annexin binding buffer (10 mM Hepes (pH 7.4), 140 mM NaCl, 2.5 mM CaCl2), stained with 500 ng/mL annexinV-FITC and 1 μg/mL propidium iodide (Sigma-Aldrich, St. Louis, Mo.), and analyzed for annexin positive cells using a CyAn ADP flow cytometer and Summit software, version 4.3 (Dako Cytomation, Carpinteria, Calif.). […] Cell Cycle Analysis Cells were plated at a density of 1×10^5 cells per well in a 6 well plate. […] 72 hours later, cells were stained with propidium iodide as described {Krishan, 1975 #28} and analyzed by flow cytometry. Cell cycle analysis was performed using ModFit software (Verity Software House, Inc. Topsham, Me.). Western Blot Analysis Cells were plated in 60 mm^2 dishes at a density of 2×10^6 cells per dish. […] Cells were washed in ice cold PBS, lysed in kinase buffer [20 mM Hepes pH7.4, 2 mM EGTA, 1% Triton X100, 10% glycerol, 1 mM Na3VO4, 1 mM NaF, 100 uM AEBSF, and 1 tablet/10 mL of Mini Complete Protease Inhibitor (Roche Molecular Biochemicals, Indianapolis, Ind.)], briefly sonicated on ice, and protein concentrations estimated using Quick Start Bradford Reagent with bovine gamma-globulin standards (Bio-Rad Laboratories, Hercules, Calif.). Equal amounts of protein were separated by SDS-PAGE on 4-12% gradient gels and transferred to polyvinylidene difluoride membranes (Invitrogen, Carlsbad, Calif.). Membranes were immunoblotted with antibodies to phosphorylated and total AKT, ERK1/2, p38, STAT-3 and STAT-5, PLCγ and total PTEN (Cell Signaling Technology, Beverly, Mass.). FGFR2 expression was detected with BekC17 antibody (Santa Cruz Biotechnology, Inc., Santa Cruz, Calif.). Horseradish peroxidase-conjugated goat anti-mouse or anti-rabbit secondary antibodies (Biomeda, Foster City, Calif.), were used, followed by chemiluminescence staining. For shRNA studies, lysates were collected 48 hours after shRNA transduction and processed as described above. Statistical Analysis

AKT = experiment: Western blot, activation of AKT; format: cell-based, human; conditions: for AKT activation: HEC1A
Protocol: as §2

STAT3 = experiment: Western blot, activation of STAT3; format: cell-based, human; conditions: 10% FBS
Protocol: as §2

p38 = experiment: Western blot, activation of p38; format: cell-based, human; conditions: 10% FBS
Protocol: as §2

PLCγ = experiment: Western blot, activation of PLCγ; format: cell-based, human; conditions: following PD173074 treatment, data not shown
Protocol: as §1

VEGFR2 = VEGFR2 (Homo sapiens, UniProt P35968); conditions: cited from earlier work
VEGFR2, sequence (P35968 20-1356, species assumed): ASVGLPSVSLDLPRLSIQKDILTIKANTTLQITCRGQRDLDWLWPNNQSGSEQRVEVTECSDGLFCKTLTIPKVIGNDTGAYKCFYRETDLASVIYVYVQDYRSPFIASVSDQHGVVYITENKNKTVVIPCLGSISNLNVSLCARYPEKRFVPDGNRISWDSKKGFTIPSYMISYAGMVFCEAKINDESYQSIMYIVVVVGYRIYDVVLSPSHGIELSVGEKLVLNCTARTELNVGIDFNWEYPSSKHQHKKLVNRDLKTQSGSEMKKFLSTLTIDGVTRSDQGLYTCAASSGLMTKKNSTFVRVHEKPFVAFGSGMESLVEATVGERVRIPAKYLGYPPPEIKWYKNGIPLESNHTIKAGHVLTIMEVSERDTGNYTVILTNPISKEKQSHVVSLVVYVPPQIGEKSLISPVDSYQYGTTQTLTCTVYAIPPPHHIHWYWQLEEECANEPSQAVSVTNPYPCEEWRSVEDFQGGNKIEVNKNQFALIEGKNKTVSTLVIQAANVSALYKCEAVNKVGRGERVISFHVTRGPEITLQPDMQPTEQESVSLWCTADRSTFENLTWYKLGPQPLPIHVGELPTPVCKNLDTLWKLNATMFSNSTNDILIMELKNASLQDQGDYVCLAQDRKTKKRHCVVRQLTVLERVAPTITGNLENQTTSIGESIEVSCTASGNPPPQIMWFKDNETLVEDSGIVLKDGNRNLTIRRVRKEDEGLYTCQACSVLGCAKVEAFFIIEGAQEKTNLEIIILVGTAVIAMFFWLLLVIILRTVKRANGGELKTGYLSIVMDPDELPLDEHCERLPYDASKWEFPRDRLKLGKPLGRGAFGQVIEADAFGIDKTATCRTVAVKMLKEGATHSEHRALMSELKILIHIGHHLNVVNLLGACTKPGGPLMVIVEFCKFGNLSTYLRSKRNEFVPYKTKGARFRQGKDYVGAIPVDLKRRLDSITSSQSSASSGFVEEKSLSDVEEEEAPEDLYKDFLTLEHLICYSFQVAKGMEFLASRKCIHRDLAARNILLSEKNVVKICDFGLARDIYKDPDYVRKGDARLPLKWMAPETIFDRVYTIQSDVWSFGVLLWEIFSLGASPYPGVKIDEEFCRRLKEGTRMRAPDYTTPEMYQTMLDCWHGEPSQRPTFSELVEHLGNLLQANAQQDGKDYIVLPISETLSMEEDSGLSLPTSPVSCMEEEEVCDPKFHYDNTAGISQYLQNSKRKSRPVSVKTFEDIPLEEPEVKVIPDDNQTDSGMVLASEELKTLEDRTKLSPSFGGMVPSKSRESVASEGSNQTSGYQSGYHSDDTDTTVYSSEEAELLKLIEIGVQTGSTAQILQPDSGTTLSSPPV

[11] = test system: myeloma cells with an activating t(4; 14) translocation and activating mutations in FGFR3; conditions: t(4; 14) translocation and activating FGFR3 mutations; cited from earlier work
[12] = test system: AN3CA (FGFR2 N550K mutant) xenograft tumors; experiment: AN3CA xenograft tumor growth; conditions: 25 mg/kg twice daily by oral gavage
Protocol: (§3) Briefly, mice were inoculated subcutaneously with 0.1 ml of a 50% RPMI/50% Matrigel™ mixture containing a suspension of tumor cells (1×10^7 cells/mouse). […] Tumor weight measurements were recorded three times a week.

[13] = test system: Hec1A (FGFR2 wild type) xenograft tumors; experiment: Hec1A xenograft tumor growth; conditions: 25 mg/kg twice daily by oral gavage
Protocol: as §3

[14] = AN3CA, 1 μM, 0 to 72 hours, 0.2% FBS
[15] = AN3CA, 1 μM, 0 to 72 hours, 10% FBS
[16] = AN3CA, increasing concentrations, 3 hours, 10% FBS
[17] = MFE296, 1 μM, 0 to 72 hours, 0.2% FBS
[18] = MFE296, 1 μM, 0 to 72 hours, 10% FBS
[19] = MFE296, increasing concentrations, 3 hours, 10% FBS
[20] = AN3CA, increasing concentrations, 3 hours
[21] = HEC1A, increasing concentrations, 3 hours
[22] = MFE296, increasing concentrations, 3 hours

Compound CCN(CC)CCCCNc1ncc2cc(-c3cc(OC)cc(OC)c3)c(NC(=O)NC(C)(C)C)nc2n1 [PD173074] has an IC50 [1] of 61.7 nM, an IC50 [2] of 284 nM and an IC50 [3] greater than 3000 nM. The IC50 [4] was 2920 nM, the IC50 [5] was greater than 1000 nM and the IC50 [6] was greater than 1000 nM. For the same compound, the “Annexin-V staining compared to DMSO” value (AN3CA cells [7]; 1 μM, 48, 72 or 96 hours) was “increase in Annexin-V staining”, the “cells undergoing apoptosis (Annexin V-FITC labeling)” value (AN3CA cells [7]; 1 μM, 96 hours after drug treatment) was roughly 70% and the “Annexin V staining” value (MFE296 cells [8]) was “did not result in enhanced Annexin V staining”. For the same compound, the cell cycle effect (AN3CA cells [9]) was “G1 cell cycle arrest”, the cell cycle effect (MFE296 cells [10]) was “induced cell cycle arrest” and the ERK1/2 activation (ERK1/2; [14]) was “suppression of ERK1/2 activation”. For the same compound, the ERK1/2 activation (ERK1/2; [15]) was “suppression of ERK1/2 activation”, the ERK1/2 activation (ERK1/2; [16]) was “suppression of ERK1/2 activation” and the ERK1/2 activation (ERK1/2; HEC1A, 1 μM, 0 to 72 hours, 0.2% FBS) was “no effect”. The ERK1/2 activation (ERK1/2; HEC1A, 1 μM, 0 to 72 hours, 10% FBS) was “no effect”, the ERK1/2 activation (ERK1/2; HEC1A, increasing concentrations, 3 hours, 10% FBS) was “no effect” and the ERK1/2 activation (ERK1/2; [17]) was “suppression of ERK1/2 activation”. For the same compound, the ERK1/2 activation (ERK1/2; [18]) was “suppression of ERK1/2 activation”, the ERK1/2 activation (ERK1/2; [19]) was “suppression of ERK1/2 activation” and the AKT phosphorylation (AKT; [14]) was “modest suppression of AKT phosphorylation”. For the same compound, the AKT phosphorylation (AKT; [15]) was “partial suppression of AKT phosphorylation”, the AKT phosphorylation (AKT; [16]) was “modest suppression of AKT phosphorylation” and the AKT activation (AKT; 1 μM, 0 to 72 hours, 0.2% FBS) was “no effect”. For the same compound, the AKT activation (AKT; 1 μM, 0 to 72 hours, 10% FBS) was “no effect”, the AKT activation (AKT; increasing concentrations, 3 hours, 10% FBS) was “no effect” and the AKT phosphorylation (AKT; [17]) was “modest suppression of AKT phosphorylation”. For the same compound, the AKT phosphorylation (AKT; [18]) was “partial suppression of AKT phosphorylation”, the AKT phosphorylation (AKT; [19]) was “modest suppression of AKT phosphorylation” and the STAT3 activation (STAT3; AN3CA, 1 μM, 0 to 72 hours) was “no effect”. The STAT3 activation (STAT3; [20]) was “no effect”, the STAT3/5 activation (STAT3; HEC1A, 1 μM, 0 to 72 hours) was “no effect” and the STAT3 activation (STAT3; [21]) was “no effect”. For the same compound, the STAT3 activation (STAT3; MFE296, 1 μM, 0 to 72 hours) was “no effect”, the STAT3 activation (STAT3; [22]) was “no effect” and the p38 activation (p38; AN3CA, 1 μM, 0 to 72 hours) was “no effect”. The p38 activation (p38; [20]) was “no effect”, the p38 activation (p38; HEC1A, 1 μM, 0 to 72 hours) was “no effect” and the p38 activation (p38; [21]) was “no effect”. For the same compound, the p38 activation (p38; MFE296, 1 μM, 0 to 72 hours) was “no effect”, the p38 activation (p38; [22]) was “no effect” and the PLCγ activation (PLCγ) was “no change”. The IC50 (VEGFR2) was roughly 100 nM, the “apoptosis in myeloma cells” value [11] was “induce apoptosis” and the “growth of xenograft tumors” value [12] was “suppressed growth of all eight”. The “tumors with tumor regression” value [12] was “six of the eight”, the mean tumor shrinkage ([12]; regressing tumors) was 51% and the “effect on xenograft tumors” value [13] was “minimal effect”.
